The subject of the assay is FGFR3 enzyme. Description: FGFR Enzymatic Assay (FRET peptide phosphorylation), FGFR3. In kind it is biochemical. Conditions: IC50 ratio showing FGFR3 selectivity; Table 2A, pre-incubated for 4 hours. On the procedure:
The inhibitor potency of the exemplified compounds was measured in an enzyme assay that measures peptide phosphorylation using FRET measurements to detect product formation. Inhibitors were serially diluted in DMSO and a volume of 0.5 μL was transferred to the wells of a 384-well plate.
GraphPad prism3 was used to analyze the data.

Consider `COc1cc(OC)c(F)c(N2Cc3cnc(-c4cn(C)nc4C)cc3N(c3ccc(CC#N)cc3)C2=O)c1F` [Example 97, 2-(4-(3-(2,6-difluoro-3,5-dimethoxyphenyl)-7-(1,3-dimethyl-1H-pyrazol-4-yl)-2-oxo-3,4-dihydropyrido[4,3-d]pyrimidin-1(2H)-yl)phenyl)acetonitrile], for which the FGFR1/FGFR3 is reported as above 5 and the FGFR4/FGFR3 was above 10.
Taken in the same sequence, the figures for `COc1cc(OC)c(F)c(N2Cc3cnc(-c4cn(C)nc4C)cc3N(c3ccc(S(C)(=O)=O)cc3)C2=O)c1F` [Example 98, 3-(2,6-difluoro-3,5-dimethoxyphenyl)-7-(1,3-dimethyl-1H-pyrazol-4-yl)-1-(4-(methylsulfonyl)phenyl)-3,4-dihydropyrido[4,3-d]pyrimidin-2(1H)-one] were above 5 and above 10.
Taken in the same sequence, the figures for `COc1cc(OC)c(F)c(N2Cc3cnc(-c4cn(C)nc4C)cc3N(c3cccc(F)c3)C2=O)c1F` [Example 99, 3-(2,6-difluoro-3,5-dimethoxyphenyl)-7-(1,3-dimethyl-1H-pyrazol-4-yl)-1-(3-fluorophenyl)-3,4-dihydropyrido[4,3-d]pyrimidin-2(1H)-one] were above 5 and above 5.
Taken in the same sequence, the figures for `COc1cc(OC)c(F)c(N2Cc3cnc(-c4cn(C)nc4C)cc3N(c3ccn(C)n3)C2=O)c1F` [Example 100, 3-(2,6-difluoro-3,5-dimethoxyphenyl)-7-(1,3-dimethyl-1H-pyrazol-4-yl)-1-(1-methyl-1H-pyrazol-3-yl)-3,4-dihydropyrido[4,3-d]pyrimidin-2(1H)-one] were above 5 and above 5.
As for `COc1cc(OC)c(F)c(N2Cc3cnc(-c4cn(C)nc4C)cc3N(c3ccc(F)c(F)c3)C2=O)c1F` [Example 102, 3-(2,6-difluoro-3,5-dimethoxyphenyl)-1-(3,4-difluorophenyl)-7-(1,3-dimethyl-1H-pyrazol-4-yl)-3,4-dihydropyrido[4,3-d]pyrimidin-2(1H)-one], the FGFR1/FGFR3 was above 3 and the FGFR4/FGFR3 is recorded as above 10.
Turning to `COc1cc(OC)c(F)c(N2Cc3cnc(-c4cn(C)nc4C)cc3N(c3cc(F)cc(F)c3)C2=O)c1F` [Example 103, 3-(2,6-difluoro-3,5-dimethoxyphenyl)-1-(3,5-difluorophenyl)-7-(1,3-dimethyl-1H-pyrazol-4-yl)-3,4-dihydropyrido[4,3-d]pyrimidin-2(1H)-one], the FGFR1/FGFR3 is above 3 and the FGFR4/FGFR3 was above 5.
Taken in the same sequence, the figures for `COc1ccc(N2C(=O)N(c3c(F)c(OC)cc(OC)c3F)Cc3cnc(-c4cn(C)nc4C)cc32)cc1` [Example 104, 3-(2,6-difluoro-3,5-dimethoxyphenyl)-7-(1,3-dimethyl-1H-pyrazol-4-yl)-1-(4-methoxyphenyl)-3,4-dihydropyrido[4,3-d]pyrimidin-2(1H)-one] were above 3 and above 5.
On to `COc1cc(OC)c(F)c(N2Cc3cnc(-c4cn(C)nc4C)cc3N(c3ncccn3)C2=O)c1F` [Example 105, 3-(2,6-difluoro-3,5-dimethoxyphenyl)-7-(1,3-dimethyl-1H-pyrazol-4-yl)-1-(pyrimidin-2-yl)-3,4-dihydropyrido[4,3-d]pyrimidin-2(1H)-one], for which the FGFR1/FGFR3 is given as above 3 and the FGFR4/FGFR3 was above 5.
Taken in the same sequence, the figures for `CCc1cnc(N2C(=O)N(c3c(F)c(OC)cc(OC)c3F)Cc3cnc(-c4cn(C)nc4C)cc32)cn1` [Example 106, 3-(2,6-difluoro-3,5-dimethoxyphenyl)-7-(1,3-dimethyl-1H-pyrazol-4-yl)-1-(5-ethylpyrazin-2-yl)-3,4-dihydropyrido[4,3-d]pyrimidin-2(1H)-one] were above 3 and above 5.
As for `COc1cc(OC)c(F)c(N2Cc3cnc(-c4cn(C)nc4C)cc3N(c3cnc(C)cn3)C2=O)c1F` [Example 107, 3-(2,6-difluoro-3,5-dimethoxyphenyl)-7-(1,3-dimethyl-1H-pyrazol-4-yl)-1-(5-methylpyrazin-2-yl)-3,4-dihydropyrido[4,3-d]pyrimidin-2(1H)-one], the FGFR1/FGFR3 is reported as above 3 and the FGFR4/FGFR3 is given as above 10.
For the compound `COc1cc(OC)c(F)c(N2Cc3cnc(-c4cn(C)nc4C)cc3N(C[C@H]3CCOC3)C2=O)c1F` [Example 108, (R)-3-(2,6-difluoro-3,5-dimethoxyphenyl)-7-(1,3-dimethyl-1H-pyrazol-4-yl)-1-((tetrahydrofuran-3-yl)methyl)-3,4-dihydropyrido[4,3-d]pyrimidin-2(1H)-one], the FGFR1/FGFR3 is above 3 and the FGFR4/FGFR3 is above 3.
For the compound `COc1cccc(N2C(=O)N(c3c(F)c(OC)cc(OC)c3F)Cc3cnc(-c4cn(C)nc4C)cc32)c1` [Example 109, 3-(2,6-difluoro-3,5-dimethoxyphenyl)-7-(1,3-dimethyl-1H-pyrazol-4-yl)-1-(3-methoxyphenyl)-3,4-dihydropyrido[4,3-d]pyrimidin-2(1H)-one], the FGFR1/FGFR3 is recorded as above 3 and the FGFR4/FGFR3 is reported as above 10.
Taken in the same sequence, the figures for `COc1cc(OC)c(F)c(N2Cc3cnc(-c4cn(C)nc4C)cc3N(c3ccccc3F)C2=O)c1F` [Example 110, 3-(2,6-difluoro-3,5-dimethoxyphenyl)-7-(1,3-dimethyl-1H-pyrazol-4-yl)-1-(2-fluorophenyl)-3,4-dihydropyrido[4,3-d]pyrimidin-2(1H)-one] were above 3 and above 5.
As for `CNS(=O)(=O)c1cccc(N2C(=O)N(c3c(F)c(OC)cc(OC)c3F)Cc3cnc(-c4cn(C)nc4C)cc32)c1` [Example 111, 3-(3-(2,6-difluoro-3,5-dimethoxyphenyl)-7-(1,3-dimethyl-1H-pyrazol-4-yl)-2-oxo-3,4-dihydropyrido[4,3-d]pyrimidin-1(2H)-yl)-N-methylbenzenesulfonamide], the FGFR1/FGFR3 is recorded as above 3 and the FGFR4/FGFR3 is listed as above 5.
On to `COc1cnc(N2C(=O)N(c3c(F)c(OC)cc(OC)c3F)Cc3cnc(-c4cn(C)nc4C)cc32)cn1` [Example 112, 3-(2,6-difluoro-3,5-dimethoxyphenyl)-7-(1,3-dimethyl-1H-pyrazol-4-yl)-1-(5-methoxypyrazin-2-yl)-3,4-dihydropyrido[4,3-d]pyrimidin-2(1H)-one], for which the FGFR1/FGFR3 is given as above 3 and the FGFR4/FGFR3 is given as above 5.
Regarding `COc1cc(OC)c(F)c(N2Cc3cnc(-c4cn(C)nc4C)cc3N(c3ccc(C(=O)N(C)C)cc3)C2=O)c1F` [Example 113, 4-(3-(2,6-difluoro-3,5-dimethoxyphenyl)-7-(1,3-dimethyl-1H-pyrazol-4-yl)-2-oxo-3,4-dihydropyrido[4,3-d]pyrimidin-1(2H)-yl)-N,N-dimethylbenzamide], the FGFR1/FGFR3 was above 3 and the FGFR4/FGFR3 is given as above 5.
With `COc1cc(OC)c(F)c(N2Cc3cnc(-c4cn(C)nc4C)cc3N(CCc3cnn(C)c3)C2=O)c1F` [Example 114, 3-(2,6-difluoro-3,5-dimethoxyphenyl)-7-(1,3-dimethyl-1H-pyrazol-4-yl)-1-(2-(1-methyl-1H-pyrazol-4-yl)ethyl)-3,4-dihydropyrido[4,3-d]pyrimidin-2(1H)-one], the FGFR1/FGFR3 was above 3 and the FGFR4/FGFR3 is listed as above 5.
In the case of `COc1cc(OC)c(F)c(N2Cc3cnc(-c4cn(C)nc4C)cc3N(c3ccc(-c4nnc(C)o4)cc3)C2=O)c1F` [Example 115, 3-(2,6-difluoro-3,5-dimethoxyphenyl)-7-(1,3-dimethyl-1H-pyrazol-4-yl)-1-(4-(5-methyl-1,3,4-oxadiazol-2-yl)phenyl)-3,4-dihydropyrido[4,3-d]pyrimidin-2(1H)-one], the FGFR1/FGFR3 is above 3 and the FGFR4/FGFR3 is above 5.
Taken in the same sequence, the figures for `COC(=O)N1CCC(N2C(=O)N(c3c(F)c(OC)cc(OC)c3F)Cc3cnc(-c4cn(C)nc4C)cc32)CC1` [Example 122, Methyl 4-(3-(2,6-difluoro-3,5-dimethoxyphenyl)-7-(1,3-dimethyl-1H-pyrazol-4-yl)-2-oxo-3,4-dihydropyrido[4,3-d]pyrimidin-1(2H)-yl)piperidine-1-carboxylate] were above 5 and above 5.
Take `COC(=O)Nc1ccc(N2C(=O)N(c3c(F)c(OC)cc(OC)c3F)Cc3cnc(-c4cn(C)nc4C)cc32)cc1` [Example 123, Methyl 4-(3-(2,6-difluoro-3,5-dimethoxyphenyl)-7-(1,3-dimethyl-1H-pyrazol-4-yl)-2-oxo-3,4-dihydropyrido[4,3-d]pyrimidin-1(2H)-yl)phenylcarbamate]: the FGFR1/FGFR3 is above 5 and the FGFR4/FGFR3 was above 3.
In the case of `COc1cc(OC)c(F)c(N2Cc3cnc(-c4cn(C)nc4C)cc3N(Cc3cnn(C4CC4)c3)C2=O)c1F` [Example 124, 1-((1-cyclopropyl-1H-pyrazol-4-yl)methyl)-3-(2,6-difluoro-3,5-dimethoxyphenyl)-7-(1,3-dimethyl-1H-pyrazol-4-yl)-3,4-dihydropyrido[4,3-d]pyrimidin-2(1H)-one], the FGFR1/FGFR3 is above 10 and the FGFR4/FGFR3 is given as above 10.
Consider `COc1cc(OC)c(F)c(N2Cc3cnc(-c4cn(C)nc4C)cc3N(Cc3cnn(CC#N)c3)C2=O)c1F` [Example 125, 2-(4-((3-(2,6-difluoro-3,5-dimethoxyphenyl)-7-(1,3-dimethyl-1H-pyrazol-4-yl)-2-oxo-3,4-dihydropyrido[4,3-d]pyrimidin-1(2H)-yl)methyl)-1H-pyrazol-1-yl)acetonitrile], for which the FGFR1/FGFR3 was above 5 and the FGFR4/FGFR3 was above 5.
As to `COc1cc(OC)c(F)c(N2Cc3cnc(-c4cn(C)nc4C)cc3N(c3cn[nH]c3)C2=O)c1F` [Example 129, 3-(2,6-difluoro-3,5-dimethoxyphenyl)-7-(1,3-dimethyl-1H-pyrazol-4-yl)-1-(1H-pyrazol-4-yl)-3,4-dihydropyrido[4,3-d]pyrimidin-2(1H)-one], the FGFR1/FGFR3 is reported as above 5 and the FGFR4/FGFR3 is above 10.

Source of the values: patent publication US11173162B2, “Bicyclic heterocycles as FGFR4 inhibitors” (Incyte Corporation, priority 2015, dated 2021).
